# Experiments:
# BRD4 (BDI_K57-E168) = BRD4 (BDI_K57-E168) (Homo sapiens (Human), UniProt O60885); test: TR-FRET bromodomain binding assay, BRD4 first bromodomain; conditions: His-tagged BD1, 100 nM Alexa647 probe
# Procedure: (§1) A time-resolved fluorescence resonance energy transfer (TR-FRET) assay was used to determine the affinities of compounds of the Examples listed in Table 1 for each bromodomain of BRD4. His-tagged first (BD1: amino acids K57-E168) and second (BD2: amino acids E352-E168) bromodomains of BRD4 were expressed and purified. An Alexa647-labeled BET-inhibitor was used as the fluorescent probe in the assay.
# (§2) Compound dilution series were prepared in DMSO via a 3-fold serial dilution from 2.5 mM to 42 nM. Compounds were then diluted 6:100 in assay buffer (20 mM Sodium Phosphate, pH 6.0, 50 mM NaCl, 1 mM EDTA, 0.01% Triton X-100, 1 mM DTT) to yield 3× working solutions. Six microliters (μL) of the working solution was then transferred to white, low-volume assay plates (Costar #3673). A 1.5× assay mixture containing His-tagged bromodomain, Europium-conjugated anti-His antibody (Invitrogen PV5596) and the Alexa-647-conjugated probe molecule was also prepared. Twelve μL of this solution were added to the assay plate to reach a final volume of 18 μL. The final concentration of 1× assay buffer contains 2% DMSO, 50 μM−0.85 nM compound, 8 nM bromodomain, 1 nM antibody and 100 or 30 nM probe (for BDI or BDII, respectively). After a one-hour incubation at room temperature, TR-FRET ratios were determined using an Envision multilabel plate reader (Ex 340, Em 495/520).
# (§3) TR-FRET data were normalized to the means of 24 no-compound controls (“high”) and 8 controls containing 1 μM un-labeled probe (“low”). Percent inhibition was plotted as a function of compound concentration and the data were fit with the 4 parameter logistic equation to obtain IC50s Inhibition constants (Ki) were calculated from the IC50s, probe Kd and probe concentration. Typical Z′ values were between 0.65 and 0.75. The minimum significant ratio was determined to evaluate assay reproducibility (Eastwood et al., (2006) J Biomol Screen, 11: 253-261). The MSR was determined to be 2.03 for BDI and 1.93 for BDII, and a moving MSR (last six run MSR overtime) for both BDI and BDII was typically <3.
# BRD4 (BDII_E352-M457) = BRD4 (BDII_E352-M457) (Homo sapiens (Human), UniProt O60885); test: TR-FRET bromodomain binding assay, BRD4 second bromodomain; conditions: His-tagged BD2, 30 nM Alexa647 probe
# Procedure: as §1, §2, §3
# [1] = test system: breast cancer cell line MX-1; test: MX-1 cell line proliferation assay (3-day, Cell Titer Glo); assay type: cell-based, human; conditions: Homo sapiens, MX1, MX-1 cells, 72 hours, read-out: Cellular proliferation: EC50
# Procedure: The impact of compounds of the Examples on cancer cell proliferation was determined using the breast cancer cell line MX-1 (ATCC) in a 3-day proliferation assay. MX-1 cells were maintained in RPMI supplemented with 10% FBS at 37 C.° and an atmosphere of 5% CO2. For compound testing, MX-1 cells were plated in 96-well black bottom plates at a density of 5000 cells/well in 90 μl of culture media and incubated at 37° overnight to allow cell adhesion and spreading. Compound dilution series were prepared in DMSO via a 3-fold serial dilution from 3 mM to 0.1 μM. The DMSO dilution series were then diluted 1:100 in phosphate buffered saline, and 10 μL of the resulted solution were added to the appropriate wells of the MX-1 cell plate. The final compound concentrations in the wells were 3, 1, 0.3, 0.1, 0.03, 0.01, 0.003, 0.001, 0.0003 and 0.0001 μM.
# Luminescence readings from the Cell Titer Glo assay were normalized to the DMSO treated cells and analyzed using the GraphPad Prism software with sigmoidal curve fitting to obtain EC50s. The minimum significant ratio (MSR) was determined to evaluate assay reproducibility (Eastwood et al., (2006) J Biomol Screen, 11: 253-261).
# [2] = test system: LPS induced IL-6 production; test: LPS (lipopolysaccharide) induced IL-6 production mouse assay; assay type: in vivo; conditions: mice, 3 mg/kg (PO), one hour before LPS, serum 2 hours after LPS
# Procedure: Compounds of the Examples listed in Table 8 were assayed for their ability to inhibit LPS (lipopolysaccharide) induced IL-6 production in mice. Severe combined immunodeficient female mice (8 per group) received an intraperitoneal challenge of lipopolysaccharide (2.5 mg/kg, L2630 E. coli 0111:B4) one hour after oral administration (PO) or intraperitoneal administration (IP) of compounds in a solution of 2% ethanol, 5% Tween-80, 20% PEG-400 and 73% (0.2% hydroxypropylmethylcellulose in water). Mice were euthanized 2 hours after lipopolysaccharide injection, blood was removed by cardiac puncture, and then the serum harvested from the blood samples was frozen at −80° C. On the day of the assay the serum samples were brought to room temperature and then diluted 1:20 in phosphate-buffered saline containing 2% bovine serum albumin. Interleukin-6 measurements were performed using a cytokine assay from Meso Scale Discovery (Gaithersburg, Md.) for mouse serum analysis according to the manufacturer's protocol and read on a SECTOR Imager 6000 (Meso Scale Discovery, Gaithersburg, Md.) instrument. Statistical analysis was performed using Prism software (version 5.0) incorporating Dunnett's one way ANOVA. The IL-6 mean and standard deviation of the group of vehicle treated animals were compared with the IL-6 mean and standard deviation of the group treated with drug. A p value <0.05 means that there is less than a 5% probability that the mean values in the two groups are equal.
Compound,Ki (BRD4 (BDI_K57-E168)),Ki (BRD4 (BDII_E352-M457)),EC50 [1],% inhibition of LPS induced IL-6 production [2]
"CCS(=O)(=O)Nc1ccc(Oc2ccc(F)cc2F)c(-c2[nH]c(C)c3c2CCCC3=O)c1 [Example 47, N-[4-(2,4-difluorophenoxy)-3-(3-methyl-4-oxo-4,5,6,7-tetrahydro-2H-isoindol-1-yl)phenyl]ethanesulfonamide]",11 nM,19 nM,193 nM,33.0 at 3 mg/kg (PO) %
"CCNC(=O)c1ccc(Oc2ccccc2)c(-c2[nH]c(C)c3c2CCCC3=O)c1 [Example 55, N-ethyl-3-(3-methyl-4-oxo-4,5,6,7-tetrahydro-2H-isoindol-1-yl)-4-phenoxybenzamide]",77 nM,511 nM,1390 nM,
"Cc1[nH]c(-c2cc(NS(=O)(=O)N(C)C)ccc2Oc2ccc(F)cc2F)c2c1C(=O)CCC2 [Example 49, N′-[4-(2,4-difluorophenoxy)-3-(3-methyl-4-oxo-4,5,6,7-tetrahydro-2H-isoindol-1-yl)phenyl]-N,N-dimethylsulfuric Diamide]",43 nM,192 nM,364 nM,
"Cc1[nH]c(-c2cc(NS(C)(=O)=O)ccc2Oc2ccccc2)c2c1C(=O)CC(C(C)C)C2 (stereo not shown) [Example 71, N-{3-[3-methyl-4-oxo-6-(propan-2-yl)-4,5,6,7-tetrahydro-2H-isoindol-1-yl]-4-phenoxyphenyl}methanesulfonamide]",375 nM,926 nM,950 nM,
"Cc1[nH]c(-c2ccccc2Oc2ccccc2)c2c1C(=O)CC(C)C2 (stereo not shown) [Example 65, 3,6-dimethyl-1-(2-phenoxyphenyl)-2,5,6,7-tetrahydro-4H-isoindol-4-one]",184 nM,382 nM,1780 nM,
"Cc1[nH]c(-c2cc(NS(C)(=O)=O)ccc2Oc2ccccc2)c2c1C(=O)CC(C)C2 (stereo not shown) [Example 67, N-[3-(3,6-dimethyl-4-oxo-4,5,6,7-tetrahydro-2H-isoindol-1-yl)-4-phenoxyphenyl]methanesulfonamide]",12 nM,68 nM,110 nM,

# Continued by falling Ki (BRD4 (BDI_K57-E168)), values first:
Ki (BRD4 (BDI_K57-E168)),Ki (BRD4 (BDII_E352-M457)),EC50 [1],Compound,% inhibition of LPS induced IL-6 production [2]
1820 nM,568 nM,> 3000 nM,"Cc1[nH]c(-c2cc(N)ccc2Sc2ccccc2)c2c1C(=O)CCC2 [Example 43, 1-[5-amino-2-(phenylsulfanyl)phenyl]-3-methyl-2,5,6,7-tetrahydro-4H-isoindol-4-one]",
315 nM,2920 nM,> 3000 nM,"Cc1[nH]c(-c2ccccc2OCC2CCOC2)c2c1C(=O)CCC2 (stereo not shown) [Example 29, 3-methyl-1-[2-(tetrahydrofuran-3-ylmethoxy)phenyl]-2,5,6,7-tetrahydro-4H-isoindol-4-one]",
151 nM,2070 nM,600 nM,"Cc1[nH]c(-c2cc(NS(C)(=O)=O)ccc2Oc2ccccc2)c2c1C(=O)CC(CC(C)C)C2 (stereo not shown) [Example 69, N-{3-[3-methyl-6-(2-methylpropyl)-4-oxo-4,5,6,7-tetrahydro-2H-isoindol-1-yl]-4-phenoxyphenyl}methanesulfonamide]",
40 nM,198 nM,329 nM,"Cc1[nH]c(-c2cc(N)ccc2Oc2ccc(F)cc2F)c2c1C(=O)CCC2 [Example 45, 1-[5-amino-2-(2,4-difluorophenoxy)phenyl]-3-methyl-2,5,6,7-tetrahydro-4H-isoindol-4-one]",
